Measurements published in patent US9988632B2, “Composition including pint gene expression inhibitor or pint activity inhibitor and use thereof” (Samsung Electronics Co., Ltd., priority 2015, dated 2018).

Legend:
Type in all cases: cell-based, human
PINT = PINT level (qPCR) after siRNA transfection; details: HDF(neonatal) cells, 25 nM siRNA, 72 hours, vs scramble siRNA
Source text: In detail, the young cells were human dermal fibroblast (HDF) (hereinafter, referred to as ‘HDF cell’ or ‘HDF (neonatal)’) obtained from neonatal foreskin, human dermal fibroblast (HDF) M4 cell (hereinafter, referred to as ‘HDF M4 cell’ or ‘HDF (M4)’) obtained from the foreskin of a child, and human mammary epithelial cell (HMEC) (hereinafter, referred to as ‘HMEC cell’ or ‘HMEC’) obtained from ATCC® PCS-600-010™. The young cells for the purposes of the experiments were cells of the above cell lines that were passaged 10 times or less and have a doubling time of about 1 day. The senescent cells were cells of the same cell lines that were passaged 33 to 50 times and have a doubling time of about 14 days or longer. The young cells and senescent cells were inoculated in 6-well plates at a density of 50,000 cells/well and 20,000 cells/well, respectively. The inoculated cells were cultured in 2 ml of a DMEM medium containing 10% (v/v) FBS, and 1× penicillin/streptomycin and high concentrations of glucose, glutamine, and pyruvate under conditions of 37° C. and 5% CO2 for 3 days.
mRNAs were isolated from all the cells thus prepared, and then quantitative polymerase chain reaction (qPCR) was performed using nucleotide sequences of SEQ ID NOS: 22 and 23 as PINT primers to measure PINT levels.
To inhibit PINT gene expression and/or PINT activity, the following 5 siRNAs including sequences complementary to PINT gene of SEQ ID NO: 1 were designed and synthesized (Cosmogenetech, Korea).
The siRNAs includes nucleotide sequences of SEQ ID NO: 12 and SEQ ID NO: 13; SEQ ID NO: 14 and SEQ ID NO: 15; SEQ ID NO: 16 and SEQ ID NO: 17; SEQ ID NO: 18 and SEQ ID NO: 19; and SEQ ID NO: 20 and SEQ ID NO: 21, respectively and hereinbelow, these siRNAs are called siPINT-1, siPINT-2, siPINT-3, siPINT-4, and siPINT-5, respectively.
It was examined whether the siRNAs decrease PINT levels in senescent cells. First, HDF(neonatal) young cells being passaged 9 times and having a doubling time of 1 day and HDF(neonatal) senescent cells being passaged 49 times and having a doubling time of 14 days, which were prepared in section 1, were transfected with 25 nM siRNA. The cells were cultured for 72 hours under the same conditions as in section 1, except that each siRNA was mixed with 1 μL of a Dharmacon transfection reagent (Dharmacon), and added to media. A negative control group was prepared in the same manner, except that scramble siRNA was added instead of the siRNAs. After culturing, PINT levels in the cells were measured in the same manner as in section 1. As a result, when siPINT-1, siPINT-2, siPINT-3, siPINT-4, and siPINT-5 were used, the PINT levels were decreased by 36, 0, 67, 50, and 0%, respectively, as compared to the control group.

PINT lincRNA = PINT lincRNA levels (qPCR) in young cells in the presence of DNA damage inducers; details: 10 μM, 24 hours, level in absence of DNA damage inducers taken as 1
Experimental: PINT lincRNA levels were measured according to DNA damage in cells. The cells were young cells HDF(M4) and HDF(neonatal) derived from humans, explained in section 1.
As a negative control, the cells were treated with dimethyl sulfoxide (DMSO) (Sigma-Aldrich). Thereafter, mRNAs were isolated from all the cells, and then quantitative polymerase chain reaction (qPCR) was performed using nucleotide sequences of SEQ ID NOS: 22 and 24 as PINT primers to measure PINT levels.

[1] = system: HDF(neonatal) senescent cells; assay: Immunoblotting of phosphorylated H2AX (gamma-H2AX) in siRNA-introduced cells; details: HDF(neonatal) senescent cells vs young cells, 25 nM siRNA, 72 hours
Experimental: (§1) HDF(neonatal) young cells being passaged 9 times and having a doubling time of 1 day and HDF(neonatal) senescent cells being passaged 49 times and having a doubling time of 14 days, which were prepared in section 1, were cultured for 72 hours under the same conditions as in section 1, except that each 25 nM of siPINT-3 and siPINT-4 was mixed with 1 μL of a Dharmacon transfection reagent (Dharmacon) and added to media. A negative control group was prepared in the same manner, except that scramble siRNA (hereinafter, also called ‘siCTRL’) was added instead of the siRNAs.
After culturing, proteins were isolated from siRNA-introduced cells, and then the isolated proteins were subjected to immunoblotting using anti-GAPDH and anti-phosphorylated-H2AX. H2AX becomes phosphorylated on serine 139 as a reaction on DNA Double-strand breaks (DSB), and is also called gamma-H2AX. Gamma-H2AX is an indicator of DNA damage.

[2] = system: HDF(neonatal) senescent cells; assay: DNA comet assay in siRNA-introduced cells; details: 25 nM siRNA, 72 hours; for tail moment: control senescent cells 2.86, young cells 0.52
Experimental: as §1
Further, DNAs were isolated from the same cells, followed by DNA comet assay. This method is performed by detecting DNA strand break in cells, based on gel electrophoresis. […] After staining a slide with SYBR Green, a length of a tail of DNA fragment was measured under a fluorescence microscope to examine DNA damage.

[3] = system: HDF(neonatal) young and senescent cells; assay: Selective death of senescent cells by inhibition of PINT expression (cell number after culturing); details: siRNA transfection, cultured 14 days
Experimental: HDF(neonatal) young cells being passaged 9 times and having a doubling time of 1 day and HDF(neonatal) senescent cells being passaged 49 times and having a doubling time of 14 days, which were prepared in section 1, were transfected with each of siPINT-1, siPINT-2, siPINT-3, siPINT-4, and siPINT-5 in the same manner as in section 3.2, and further cultured in wells of 6-well plates for 14 days under the same conditions as in section 1. A negative control group was prepared in the same manner, except that scramble siRNA (hereinafter, also called ‘siCTR’) was added instead of the siRNAs.
In FIG. 5, siCTR represents control siRNA, and siPINT represents siPINT-3 among the five used siPINTs. […] However, there was little change in the number of young cells by inhibition of PINT lincRNA expression.

Compound | PINT levels decreased as compared to the control group (PINT) | gamma-H2AX levels (indicator of DNA damage) [1] | tail moment [2] | also measured
siPINT-1: siRNA complementary to PINT gene, nucleotide sequences of SEQ ID NO: 12 and SEQ ID NO: 13 (chain 1 AAGAAAUACGCAGAACUGAUUCCUG; chain 2 CAGGAAUCAGUUCUGCGUAUUUCUU; listed as RNA, chemistry not given here) | 36% | – | – | –
siPINT-5: siRNA complementary to PINT gene, nucleotide sequences of SEQ ID NO: 20 and SEQ ID NO: 21 (chain 1 AGCCAGGAAGAGGGACUGGAACCAU; chain 2 AUGGUUCCAGUCCCUCUUCCUGGCU; listed as RNA, chemistry not given here) | 0% | – | – | –
siPINT-2: siRNA complementary to PINT gene, nucleotide sequences of SEQ ID NO: 14 and SEQ ID NO: 15 (chain 1 UGGGAUAAUUUGCCAUCUGGAGUUU; chain 2 AAACUCCAGAUGGCAAAUUAUCCCA; listed as RNA, chemistry not given here) | 0% | – | – | –
C[C@@]1(CO)[C@H](O)CC[C@@]2(C)[C@H]1CC[C@H]1C[C@@H]3C[C@@]12CC[C@]3(O)CO [aphidicolin] | – | – | – | relative PINT level (PINT lincRNA; HDF(M4) young cells): 1.95; relative PINT level (PINT lincRNA; HDF(neonatal) young cells): 2.72
siPINT-3: siRNA complementary to PINT gene, nucleotide sequences of SEQ ID NO: 16 and SEQ ID NO: 17 (chain 1 AUGUAUCAAAUGCCUGGUUCUAUUU; chain 2 AAAUAGAACCAGGCAUUUGAUACAU; listed as RNA, chemistry not given here) | 67% | specifically increased | 3.68 | DNA damage (comet tails, photograph) compared to senescent cells without siPINT introduction [2]: remarkably increased DNA damage; number of senescent cells compared to the negative control group ([3]; HDF(neonatal) senescent cells): remarkably decreased; change in the number of young cells ([3]; HDF(neonatal) young cells): little change
siPINT-4: siRNA complementary to PINT gene, nucleotide sequences of SEQ ID NO: 18 and SEQ ID NO: 19 (chain 1 AAGUAGGAGCCACGAAAUGUCAUUU; chain 2 AAAUGACAUUUCGUGGCUCCUACUU; listed as RNA, chemistry not given here) | 50% | specifically increased | 5.58 | –
